Laboratory results taken from patent US20130078718A1, “CONVERSION OF VASCULAR ENDOTHELIAL CELLS INTO MULTIPOTENT STEM-LIKE CELLS” (PRESIDENT AND FELLOWS OF HARVARD COLLEGE, priority 2010, published 2013).
“Also recorded” adds a separate entry of the source.

How the values were obtained:
[1] = test system: HUVEC and HCMEC; experiment: Differentiation of treated endothelial cells in osteogenic, chondrogenic or adipogenic culture medium; assay type: cell-based, human; details: for alkaline phosphatase staining (osteoblasts) / alizarin red staining (matrix calcification) / gene expression of osteocalcin, osterix, COL2A1, SOX9, adiponectin, PPARγ2 (real-time quantitative PCR) / TIE2 expression in osteoblasts, chondrocytes and adipocytes derived from endothelial cells (immunoblotting): 48 hours treatment; for alkaline phosphatase staining (osteoblasts): then 7 days osteogenic medium; for alizarin red staining (matrix calcification): then 21 days osteogenic medium; for gene expression of osteocalcin, osterix, COL2A1, SOX9, adiponectin, PPARγ2 (real-time quantitative PCR): then osteogenic 7 days, chondrogenic 14 days or adipogenic 7 days, compared to vehicle; for differentiation by alkaline phosphatase, alizarin red, alcian blue or oil red O staining / protein expression of osterix, SOX9 and PPARγ2 (immunoblotting) / expression of endothelial markers TIE2, vWF, VE-cadherin, TIE1 in osteoblasts, chondrocytes, adipocytes derived from endothelial cells (immunoblot): 48 h treatment; for differentiation by alkaline phosphatase, alizarin red, alcian blue or oil red O staining: then differentiation medium 7-21 d; for protein expression of osterix, SOX9 and PPARγ2 (immunoblotting): then osteogenic 7 d, chondrogenic 14 d or adipogenic 7 d; for TIE2 expression in osteoblasts, chondrocytes and adipocytes derived from endothelial cells (immunoblotting) / expression of endothelial markers TIE2, vWF, VE-cadherin, TIE1 in osteoblasts, chondrocytes, adipocytes derived from endothelial cells (immunoblot): HCMEC, then differentiation medium
Procedure: (§1) RNA extractions were performed using the RNeasy Mini kit (Qiagen) and protocol. RNA samples were submitted to a core facility (Biopolymers Facility, Department of Genetics, Harvard Medical School) where real-time PCR experiments were conducted using the Syber Green PCR system (ABI) on an ABI 7500 cycler, with 40 cycles per sample. Cycling temperatures were as follows: denaturing 95° C.; annealing 60° C.; extension, 70° C. The following primers (Integrated DNA Technologies) were used: […]
Cells were grown in StemPro osteogenic, chondrogenic, or adipogenic culture medium (Invitrogen). Alkaline phosphatase staining was performed using the alkaline phosphatase kit and protocol (Sigma-Aldrich) on cultures grown in osteogenic medium for 7 days to detect osteoblasts. Alizarin Red (Sigma-Aldrich) staining was performed for 30 minutes on cultures grown in osteogenic medium for 21 days to detect matrix calcification. Alcian Blue (Sigma) staining was used to stain chondrocyte proteoglycans for 5 minutes in cultures grown in chondrogenic medium for 14 days. Oil Red O (Sigma-Aldrich) staining was performed for 15 minutes on cultures grown in adipogenic medium for 7 days.
Cells were grown in StemPro osteogenic, chondrogenic, or adipogenic culture medium (Invitrogen). Alkaline phosphatase staining was performed using the alkaline phosphatase kit and protocol (Sigma-Aldrich) on cultures grown in osteogenic medium for 7 d to detect osteoblasts. Alizarin Red (Sigma-Aldrich) staining was performed for 30 min on cultures grown in osteogenic medium for 21 d to detect matrix calcification. Alcian Blue (Sigma) staining was used to stain chondrocyte proteoglycans for 5 minutes in cultures grown in chondrogenic medium for 14 d. Oil Red O (Sigma-Aldrich) staining was performed for 15 min on cultures grown in adipogenic medium for 7 d. For in vivo analysis, endothelial cells were labeled with fluorescent quantum dots using the Qtracker 525 Cell Labeling Kit (Invitrogen). Cells were treated in culture to induce EndMT then absorbed into OPLA polylactic acid scaffolds (BD Biosciences). Scaffolds were surgically implanted subcutaneously into immunodeficient nude mice (Nu/Nu strain; Charles River Laboratories). Local injection of StemPro differentiation medium (described above) was performed in the area of the implants every 72 h for 6 weeks. Scaffolds were cryosectioned and stained with Alizarin Red, Alcian Blue, or Oil Red O as described above. All procedures were reviewed and approved by the Institutional Animal Care and Use Committee at Harvard Medical School.

[2] = test system: Human umbilical vein endothelial cells (HUVECs) and human cutaneous microvascular endothelial cells (HCMECs); experiment: Endothelial-mesenchymal transition (EndMT) in endothelial cells: morphology, marker expression by immunoblotting, flow cytometry, real-time PCR, ELISA; assay type: cell-based; details: for FSP-1, α-SMA, and N-cadherin levels (immunoblotting) / VE-cadherin, CD31, and vWF levels (immunoblotting): 10 ng ml−1, 48 h; for EndMT-associated transcription factors Snail, Slug, ZEB-1, SIP-1, LEF-1, Twist (ELISA): 10 ng ml−1, compared to control cells; for FSP-1 and α-SMA levels (immunoblotting) / TIE-2 expression levels (immunoblotting) / VE-cadherin levels (immunoblotting) / co-staining for endothelial marker TIE2 and mesenchymal marker FSP-1 (fluorescence microscopy or flow cytometry) / expression of genes associated with EndMT (FSP-1, α-SMA, N-cadherin, fibronectin, Snail, Slug, ZEB-1, SIP-1, LEF-1, Twist), real-time quantitative PCR / cell morphology (DIC imaging): 10 ng/mL, 48 hours; for expression of genes associated with EndMT (FSP-1, α-SMA, N-cadherin, fibronectin, Snail, Slug, ZEB-1, SIP-1, LEF-1, Twist), real-time quantitative PCR: compared to control cells; for cell morphology (DIC imaging): serum free medium
Procedure: Human umbilical vein endothelial cells (HUVEC) and human cutaneous microvascular endothelial cells (HCMEC) were provided by J. Bischoff (Children's Hospital Boston) and isolated as previously described^35. […] Cells were grown in culture using EGM-2 medium (Cambrex), containing 10% FBS and 1% Penicillin/Streptomycin, followed by human endothelial serum free medium (Gibco) 24 hours prior to all experimental conditions. Bone marrow derived mesenchymal stem cells (ScienCell Research Laboratories) were grown in mesenchymal stem cell medium (ScienCell Research Laboratories). Human corneal fibroblasts, from a stock initially provided by E. Hay (Harvard Medical School), were grown in RPMI medium, containing 10% FBS and 1% Penicillin/Streptomycin. Primary human osteoblasts, chondrocytes, and adipocytes and their respective growth media were obtained from Cell Applications Inc. Recombinant TGF-β2 and BMP4 proteins (R&D Systems) were added to the serum free culture medium for all relevant experiments at a concentration of 10 ng/mL. Cells were treated for 15 minutes to assess ALK2 phosphorylation, 1 hour to measure Smad5 phosphorylation, or 48 hours to induce EndMT. All experiments for this study were performed at minimum in triplicate.
Immunoassays were performed using the following antibodies at concentrations (and using protocols) recommended by the respective manufacturers: FSP-1 (H00006275-M01; Stressgen), ALK2 (sc-5671), Phospho-tyrosine (sc-7020), VE-cadherin (sc-6458), TIE2 (sc-324, sc-9026), STRO-1 (sc-47733), CD44 (sc-71220), CD90 (sc-9163), Osteocalcin (sc-74495, sc-23790), SOX9 (sc-20095), COL2A1 (sc-59958, sc-52658), PPARγ2 (sc-22022; Santa Cruz Biotechnology), vWF (ab68545; Abcam); His (A00174; GenScript); α-SMA (A5228), β-actin (A1978; Sigma-Aldrich). Samples were run with Criterion precast SDS-PAGE Gels (Bio-Rad). HRP-conjugated IgG TrueBlot reagents (18-8814, 18-8816, 18-8817; eBioscience) were used at a dilution of 1:1000. TrueBlot IgG beads (eBioscience) were used for immunoprecipitation experiments. Alexa Fluor secondary antibodies (Invitrogen) were used at a dilution of 1:200. Images were acquired using a Nikon 80i fluorescence microscope.
Endothelial cells were stained in suspension using antibodies against TIE2, FSP-1, STRO-1, and His (described above) and the protocols provided by their respective manufacturer. Flow cytometry was performed at the Harvard Medical School, Department of Pathology flow cytometry core facility using a FACSDCalibur (BD Biosciences) cell sorter isolating 30,000 cells per sample.
as §1
Human umbilical vein endothelial cells (HUVEC) and human cutaneous microvascular endothelial cells (HCMEC) isolated as previously described (35). […] Cells were grown in culture using EGM-2 medium (Cambrex), containing 10% FBS and 1% Penicillin/Streptomycin, followed by human endothelial serum free medium (Gibco) 24 h prior to all experimental conditions.

[3] = test system: human cutaneous microvascular endothelial cells (HCMEC); experiment: Differentiation into myocytes, cardiomyocytes and neurons (immunoblotting); assay type: cell-based; details: 10 ng/ml, 48 hours, then myogenic, cardiomyogenic or neurogenic medium 14 days
Procedure: Cardiomyogenic medium was purchased from Millipore Inc., (SCM-102).
Myogenic medium consisted of human endothelial serum-free medium supplemented with 5% horse serum, 0.1 μM dexamethasone, and 50 μM hydrocortisone (previously described by Gang et al, 2004).
Neurogenic medium consisted human endothelial serum-free medium supplemented with 100 ng/ml bFGF (previously described by Jiang et al., 2002). Endothelial cells converted into mesenchymal stem-like cells by treatment with 10 ng/ml TGF-β2 for 48 hours were plated on fibronectin-coated polystyrene wells in the neurogenic medium.

Substance: BMP4: Recombinant BMP4 protein (R&D Systems), ALK2 activating ligand, used at 10 ng/mL
- alkaline phosphatase staining (osteoblasts) [1]: strong positive staining
- alizarin red staining (matrix calcification) [1]: high levels of matrix calcification
- gene expression of osteocalcin, osterix, COL2A1, SOX9, adiponectin, PPARγ2 (real-time quantitative PCR) [1]: dramatic increases
- differentiation by alkaline phosphatase, alizarin red, alcian blue or oil red O staining [1]: differentiated into other cell types
- protein expression of osterix, SOX9 and PPARγ2 (immunoblotting) [1]: increases in protein expression
- TIE2 expression in osteoblasts, chondrocytes and adipocytes derived from endothelial cells (immunoblotting) [1]: strong expression of TIE2
- expression of endothelial markers TIE2, vWF, VE-cadherin, TIE1 in osteoblasts, chondrocytes, adipocytes derived from endothelial cells (immunoblot) [1]: showed expression of these endothelial markers
- effect on EndMT (stimulation) [2]: stimulators of EndMT; also recorded: stimulate EndMT
- FSP-1, α-SMA, and N-cadherin levels (immunoblotting) [2]: increased
- VE-cadherin, CD31, and vWF levels (immunoblotting) [2]: decreased
- EndMT-associated transcription factors Snail, Slug, ZEB-1, SIP-1, LEF-1, Twist (ELISA) [2]: much higher
- FSP-1 and α-SMA levels (immunoblotting) [2]: increased
- TIE-2 expression levels (immunoblotting) [2]: remained unchanged; also recorded: remain constant
- VE-cadherin levels (immunoblotting) [2]: significantly decreased
- co-staining for endothelial marker TIE2 and mesenchymal marker FSP-1 (fluorescence microscopy or flow cytometry) [2]: staining for both
- expression of genes associated with EndMT (FSP-1, α-SMA, N-cadherin, fibronectin, Snail, Slug, ZEB-1, SIP-1, LEF-1, Twist), real-time quantitative PCR [2]: much higher
- cell morphology (DIC imaging) [2]: distinct change from cobblestone-like endothelial cell morphology to fibroblast-like morphology

Substance: TGF-β2: Recombinant TGF-β2 protein (R&D Systems), ALK2 activating ligand, used at 10 ng/mL
- alkaline phosphatase staining (osteoblasts) [1]: strong positive staining
- alizarin red staining (matrix calcification) [1]: high levels of matrix calcification
- gene expression of osteocalcin, osterix, COL2A1, SOX9, adiponectin, PPARγ2 (real-time quantitative PCR) [1]: dramatic increases
- differentiation by alkaline phosphatase, alizarin red, alcian blue or oil red O staining [1]: differentiated into other cell types
- protein expression of osterix, SOX9 and PPARγ2 (immunoblotting) [1]: increases in protein expression
- TIE2 expression in osteoblasts, chondrocytes and adipocytes derived from endothelial cells (immunoblotting) [1]: strong expression of TIE2
- expression of endothelial markers TIE2, vWF, VE-cadherin, TIE1 in osteoblasts, chondrocytes, adipocytes derived from endothelial cells (immunoblot) [1]: showed expression of these endothelial markers
- staining of clonal populations for osteoblasts, chondrocytes or adipocytes (AP, AR, AB, OR) ([1]; three clonal populations of HUVEC and HCMEC, differentiation medium): stained positive
- effect on EndMT (stimulation) [2]: stimulators of EndMT; also recorded: stimulate EndMT
- FSP-1, α-SMA, and N-cadherin levels (immunoblotting) [2]: increased
- VE-cadherin, CD31, and vWF levels (immunoblotting) [2]: decreased
- EndMT-associated transcription factors Snail, Slug, ZEB-1, SIP-1, LEF-1, Twist (ELISA) [2]: much higher
- FSP-1 and α-SMA levels (immunoblotting) [2]: increased
- TIE-2 expression levels (immunoblotting) [2]: remained unchanged; also recorded: remain constant
- VE-cadherin levels (immunoblotting) [2]: significantly decreased
- co-staining for endothelial marker TIE2 and mesenchymal marker FSP-1 (fluorescence microscopy or flow cytometry) [2]: staining for both
- expression of genes associated with EndMT (FSP-1, α-SMA, N-cadherin, fibronectin, Snail, Slug, ZEB-1, SIP-1, LEF-1, Twist), real-time quantitative PCR [2]: much higher
- cell morphology (DIC imaging) [2]: distinct change from cobblestone-like endothelial cell morphology to fibroblast-like morphology
- VE-cadherin, FSP-1, CD44, CD90 expression in clonal populations (multiplex ELISA) ([2]; three clonal populations of HUVEC and HCMEC, 48 h): decreased expression of VE-cadherin and increased expression of FSP-1, CD44, and CD90
- expression of MyoD1, cardiac troponin I or neurofilament-L (immunoblotting) [3]: did express these markers
